Measurements: US20250304537A1 (Repare Therapeutics Inc., priority 2022, published 2025)
Where two headings read alike, the source gives them in different places.

Key:
[1] = system: PKMYT1 (CDK1 pThr14) in FUOV1 cells; test: PKMYT1 cell-based activity assay, CDK1 pThr14 AlphaLISA in FUOV1 cells; conditions: read-out: FUOV-1 CDK1 pThr14 IC50
Outline: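 FUOV1 cells were treated with PKMYT1 inhibitor for 2 h at 37 °C, then lysed. CDK1 pThr14 was measured by AlphaLISA, pairing an anti-pThr14 antibody with an anti-total CDK1 antibody (5 nM each). Signal read at 680/615 nm and used to derive IC50.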

[2] = biological target: recombinant human Myt1 (full length PKMYT1) (Homo sapiens (Human), UniProt Q99640); test: Recombinant human Myt1 kinase assay (ADP-Glo); assay type: biochemical; conditions: 10 μM ATP
Outline: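 Full-length insect-cell-expressed human Myt1 (18 nM final) was preincubated with compound (0.5% DMSO) for 15 min at 22 °C. The reaction ran with 10 μM ATP for 60 min at 30 °C in HEPES buffer with Mg2+/Mn2+ and DTT. ADP formed was read by ADP-Glo luminescence, giving IC50 and % max inhibition.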

Sequence of recombinant human Myt1 (full length PKMYT1) (Q99640 whole entry): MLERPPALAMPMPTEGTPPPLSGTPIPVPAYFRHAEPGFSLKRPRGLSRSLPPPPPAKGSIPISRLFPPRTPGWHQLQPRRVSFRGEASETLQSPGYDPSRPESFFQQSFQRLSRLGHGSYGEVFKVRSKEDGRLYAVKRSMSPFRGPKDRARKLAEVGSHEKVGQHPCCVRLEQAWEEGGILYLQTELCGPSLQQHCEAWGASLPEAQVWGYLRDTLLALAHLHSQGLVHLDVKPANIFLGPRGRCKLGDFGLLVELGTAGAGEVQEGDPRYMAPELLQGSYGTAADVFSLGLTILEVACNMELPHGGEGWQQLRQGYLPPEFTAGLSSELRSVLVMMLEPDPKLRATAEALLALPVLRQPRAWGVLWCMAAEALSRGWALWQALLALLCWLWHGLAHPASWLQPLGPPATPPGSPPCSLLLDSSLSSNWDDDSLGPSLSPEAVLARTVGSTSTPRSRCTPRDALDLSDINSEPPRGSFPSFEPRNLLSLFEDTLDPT

## CC1(C(=O)Nc2cc(F)c(F)cc2-c2nc(C(N)=O)c(N)c(-c3c(Cl)ccc4[nH]ncc34)n2)CC1 [Compound 459]
[1]; 2 h, 2 h compound incubation
  IC50: 44 nM
[2]
  IC50: 9 nM

## Cc1ccc2[nH]ncc2c1-c1nc(-c2ccc(C(F)(F)F)cc2NC(=O)C2(C)CC2)nc(C(N)=O)c1N [Compound 454, 5-amino-6-(5-methyl-1H-indazol-4-yl)-2-(2-(1-methylcyclopropane-1-carboxamido)-4-(trifluoromethyl)phenyl)pyrimidine-4-carboxamide]
[1]; 2 h, 2 h compound incubation
  IC50: 447 nM
[2]
  IC50: 26 nM

## Cc1ccc2[nH]ncc2c1-c1nc(-c2ccccc2NC(=O)C2(C)COC2)nc(C(N)=O)c1N [Compound 408]
[1]; 2 h, 2 h compound incubation
  IC50: 9 nM
[2]
  IC50: 7 nM

## Cc1ccc2[nH]ncc2c1-c1nc(-c2ccccc2Nc2ccc(F)cn2)nc(C(N)=O)c1N [Compound 450]
[1]; 2 h, 2 h compound incubation
  IC50: 121 nM
[2]
  IC50: 8 nM

## Cc1ccc2[nH]ncc2c1-c1nc(-c2cccnc2Nc2cscn2)nc(C(N)=O)c1N [Compound 894]
[1]; 2 h, 2 hours with compound
  IC50: 447 nM
[2]
  IC50: 17 nM

## Cc1ccc2[nH]ncc2c1-c1nc(-c2cccnc2NC(=O)C(C)(C)C)c(F)c(C(N)=O)c1N [Compound 905, 5-amino-3-fluoro-6-(5-methyl-1H-indazol-4-yl)-2′-pivalamido-[2,3′-bipyridine]-4-carboxamide]
[1]; 2 h, 2 hours with compound
  IC50: > 10000 nM
[2]
  IC50: < 3 nM

## Cc1ccc2[nH]ncc2c1-c1nc(-c2cccnc2Nc2cccc(F)c2)nc(C(N)=O)c1N [Compound 600]
[1]; 2 h, 2 h compound incubation
  IC50: 885 nM
[2]
  IC50: 10 nM

## Cc1ccc2[nH]ncc2c1-c1nc(-c2ccccc2NC(=O)C2(C(F)(F)F)CC2)nc(C(N)=O)c1N [Compound 405]
[1]; 2 h, 2 h compound incubation
  IC50: 93 nM
[2]
  IC50: 4 nM

## Cc1ccc(O)c(C)c1-c1cc(-c2ncccn2)cc(C(N)=O)c1N [Compound 78]
[1]; 2 h, 2 h incubation
  IC50: 326 nM
[2]
  IC50: 9 nM

## COC[C@@H](C)Oc1nccc(-c2cc(-c3c(C)ccc4[nH]ncc34)c(N)c(C(N)=O)n2)n1 [Compound 204]
[1]; 2 h, 2 h incubation
  IC50: 205 nM
[2]
  IC50: 6 nM

## Cc1ccc2[nH]ncc2c1-c1cc(-c2ccnc(OCCc3cc[nH]n3)n2)nc(C(N)=O)c1N [Compound 265]
[1]; 2 h, 2 h incubation
  IC50: 387 nM
[2]
  IC50: 4 nM

## Cc1ccc(O)c(C)c1-c1cc(-c2cncs2)nc(C(N)=O)c1N [Compound 82]
[1]; 2 h, 2 h incubation
  IC50: 107 nM
[2]
  IC50: 7 nM

## Cc1ccc2[nH]ncc2c1-c1cc(-c2ccnc(OCCc3nccs3)n2)nc(C(N)=O)c1N [Compound 313]
[1]; 2 h, 2 h incubation
  IC50: 137 nM
[2]
  IC50: 6 nM

## Cc1ccc2[nH]ncc2c1-c1nc(-c2cccnc2Nc2ncccc2F)nc(C(N)=O)c1N [Compound 621]
[1]; 2 h, 2 h compound incubation
  IC50: 3 nM
[2]
  IC50: 3 nM

## CCCc1ccccc1-c1nc(C(N)=O)c(N)c(-c2c(C)ccc3[nH]ncc23)n1 [Compound 796]
[1]; 2 h, 2 hours with compound
  IC50: 781 nM
[2]
  IC50: 15 nM

## Cc1ccc2[nH]ncc2c1-c1cc(-c2ccnc(OCc3ncccn3)n2)nc(C(N)=O)c1N [Compound 251]
[1]; 2 h incubation
  IC50: 46 nM
[2]
  IC50: 3 nM

## Cc1ccc2[nH]ncc2c1-c1cc(-c2cccc(OC3CCCOC3)n2)nc(C(N)=O)c1N (centres unmarked) [Compound 306]
[1]; 2 h, 2 h incubation
  IC50: 449 nM
[2]
  IC50: 7 nM

## Cc1ccc2[nH]ncc2c1-c1nc(-c2ccc(F)cc2Nc2cc(C#N)ccn2)nc(C(N)=O)c1N [Compound 612]
[1]; 2 h, 2 h compound incubation
  IC50: 214 nM
[2]
  IC50: 12 nM

## Cc1ccc2[nH]ncc2c1-c1cc(-c2ccnc(N3CCCC3)n2)nc(C(N)=O)c1N [Compound 174]
[1]; 2 h, 2 h incubation
  IC50: 939 nM
[2]
  IC50: 10 nM

## Cc1ccc2[nH]ncc2c1-c1nc(-c2cccnc2NC2CCOCC2C)nc(C(N)=O)c1N (centres unmarked) [Compound 606]
[1]; 2 h, 2 h compound incubation
  IC50: 67 nM
[2]
  IC50: 2 nM

## Cc1ccc2[nH]ncc2c1-c1nc(-c2cc(F)ccc2NS(=O)(=O)C2CC2)nc(C(N)=O)c1N [Compound 481]
[1]; 2 h, 2 h compound incubation
  IC50: 83 nM
[2]
  IC50: 2 nM

## Cc1ccc2[nH]ncc2c1-c1cc(-c2cccc(O[C@@H]3CCOC3)n2)nc(C(N)=O)c1N (atropisomer, axis not shown) [Compound 227, (R)-5-amino-4-(5-methyl-1H-indazol-4-yl)-6′-(((R)-tetrahydrofuran-3-yl)oxy)-[2,2′-bipyridine]-6-carboxamide]
[1]; 2 h, 2 h incubation
  IC50: 198 nM
[2]
  IC50: 2 nM

## Cc1ccc(O)c(C)c1-c1cc(-c2cccc(C(F)(F)F)n2)nc(C(N)=O)c1N [Compound 60]
[1]; 2 h, 2 h incubation
  IC50: 1820 nM
[2]
  IC50: 11 nM

## Cc1ccc2[nH]ncc2c1-c1nc(-c2cc(F)c(F)cc2NC(=O)C2(C(F)(F)F)CCC2)nc(C(N)=O)c1N [Compound 470]
[1]; 2 h, 2 h compound incubation
  IC50: 1230 nM
[2]
  IC50: 18 nM

## Cc1ccc2[nH]ncc2c1-c1nc(-c2ccccc2NC(=O)C(C)(C)C(F)(F)F)nc(C(N)=O)c1N [Compound 402]
[1]; 2 h, 2 h compound incubation
  IC50: 41 nM
[2]
  IC50: 6 nM

## Cc1ccncc1Nc1ncccc1-c1nc(C(N)=O)c(N)c(-c2c(C)ccc3[nH]ncc23)n1 [Compound 599]
[1]; 2 h, 2 h compound incubation
  IC50: 630 nM
[2]
  IC50: 363 nM

## Cc1ccc2[nH]ncc2c1-c1nc(-c2ccccc2NS(C)(=O)=O)nc(C(N)=O)c1N [Compound 427, 5-amino-6-(5-methyl-1H-indazol-4-yl)-2-(2-(methylsulfonamido)phenyl)pyrimidine-4-carboxamide]
[1]; 2 h, 2 h compound incubation
  IC50: 23 nM
[2]
  IC50: 4 nM

## Cc1ccc2[nH]ncc2c1-c1nc(-c2ccccc2NC(=O)C2(Cl)CC2)nc(C(N)=O)c1N [Compound 441]
[1]; 2 h, 2 h compound incubation
  IC50: 8 nM
[2]
  IC50: 4 nM

## Cc1ccc2[nH]ncc2c1-c1nc(-c2cccnc2NC(=O)C(C)(C)C)nc(C(N)=O)c1N [Compound 805, 5-amino-6-(5-methyl-1H-indazol-4-yl)-2-(2-pivalamidopyridin-3-yl)pyrimidine-4-carboxamide]
[1]; 2 h, 2 hours with compound
  IC50: 71 nM
[2]
  IC50: 3 nM

## Cc1ccc2[nH]ncc2c1-c1nc(-c2ccccc2N[C@H](C)C(F)(F)F)nc(C(N)=O)c1N [Compound 430]
[1]; 2 h, 2 h compound incubation
  IC50: 8 nM
[2]
  IC50: 8 nM

## Cc1ccc2[nH]ncc2c1-c1cc(-c2ccnc(OCc3cccnc3)n2)nc(C(N)=O)c1N [Compound 164]
[1]; 2 h, 2 h incubation
  IC50: 473 nM
[2]
  IC50: 14 nM

## Cc1ccc2[nH]ncc2c1-c1nc(-c2ccccc2S(=O)(=O)NC(C)(C)C)nc(C(N)=O)c1N [Compound 792]
[1]; 2 h, 2 h compound incubation
  IC50: > 10000 nM
[2]
  IC50: 10100 nM

## CC(=O)Nc1ccccc1-c1nc(C(N)=O)c(N)c(-c2c(C)ccc3[nH]ncc23)n1 [Compound 320]
[1]; 2 h, 2 h incubation
  IC50: 19 nM
[2]
  IC50: 6 nM

## Cc1ccc2[nH]ncc2c1-c1cc(-c2ccnc(OCc3ccccn3)n2)nc(C(N)=O)c1N [Compound 229]
[1]; 2 h, 2 h incubation
  IC50: 134 nM
[2]
  IC50: 4 nM

## Cc1ccc2[nH]ncc2c1-c1nc(-c2ccccc2NC(=O)C(C)(C)F)nc(C(N)=O)c1N [Compound 434]
[1]; 2 h, 2 h compound incubation
  IC50: 8 nM
[2]
  IC50: 3 nM

## Cc1ccc2[nH]ncc2c1-c1nc(-c2cc(F)cc(F)c2NCC(F)F)nc(C(N)=O)c1N [Compound 436]
[1]; 2 h, 2 h compound incubation
  IC50: 206 nM
[2]
  IC50: 7 nM

## Cc1ccc2[nH]ncc2c1-c1cc(-c2ccnc(O[C@H]3CO[C@H]4OCC[C@H]43)n2)nc(C(N)=O)c1N [Compound 208]
[1]; 2 h, 2 h incubation
  IC50: 106 nM
[2]
  IC50: 6 nM

## Cc1ccc2[nH]ncc2c1-c1nc(-c2cccc3c2NC(=O)C3)nc(C(N)=O)c1N [Compound 385]
[1]; 2 h, 2 h incubation
  IC50: 289 nM
[2]
  IC50: 5 nM

## Cc1ccc2[nH]ncc2c1-c1cc(-c2cccnn2)nc(C(N)=O)c1N [Compound 191]
[1]; 2 h, 2 h incubation
  IC50: 390 nM
[2]
  IC50: 42 nM

## Cc1ccc2[nH]ncc2c1-c1cc(-c2cccc(Oc3cccc(N4CCCC4)c3)n2)nc(C(N)=O)c1N [Compound 182]
[1]; 2 h, 2 h incubation
  IC50: 1600 nM
[2]
  IC50: 15 nM

## CC(=O)Nc1cccc(-c2cc(-c3c(C)ccc(O)c3C)c(N)c(C(N)=O)n2)c1 [Compound 49]
[1]; 2 h, 2 h incubation
  IC50: 137 nM
[2]
  IC50: 6 nM

## Cc1nc2cccc(-c3nc(C(N)=O)c(N)c(-c4c(C)ccc5[nH]ncc45)n3)c2s1 [Compound 389]
[1]; 2 h, 2 h incubation
  IC50: 433 nM
[2]
  IC50: 8 nM

## Cc1ccc2[nH]ncc2c1-c1nc(-c2cc(F)cnc2NC2(C(F)(F)F)CC2)nc(C(N)=O)c1N [Compound 908]
[1]; 2 h, 2 hours with compound
  IC50: 95 nM
[2]
  IC50: < 3 nM

## Cc1ccc2[nH]ncc2c1-c1nc(-c2ccccc2NC(=O)[C@]2(C)CCCN2)nc(C(N)=O)c1N [Compound 422]
[1]; 2 h, 2 h compound incubation
  IC50: 373 nM
[2]
  IC50: 19 nM

## Cc1cccc(-c2nc(C(N)=O)c(N)c(-c3c(C)ccc4[nH]ncc34)n2)c1 [Compound 101]
[1]; 2 h, 2 h incubation
  IC50: 570 nM
[2]
  IC50: 26 nM

## Cc1ccc2[nH]ncc2c1-c1nc(-c2ccccc2NC(=O)C2(C)CC2(Cl)Cl)nc(C(N)=O)c1N (centres unmarked) [Compound 463]
[1]; 2 h, 2 h compound incubation
  IC50: 278 nM
[2]
  IC50: 8 nM

## Cc1ccc2[nH]ncc2c1-c1nc(-c2ccc(F)cc2Nc2ncccc2C#N)nc(C(N)=O)c1N [Compound 613]
[1]; 2 h, 2 h compound incubation
  IC50: 6 nM
[2]
  IC50: 4 nM

## Cc1ccc2[nH]ncc2c1-c1cc(-c2cccc(OCC3COC3)n2)nc(C(N)=O)c1N [Compound 268]
[1]; 2 h, 2 h incubation
  IC50: 261 nM
[2]
  IC50: 9 nM

## Cc1ccc2[nH]ncc2c1-c1cc(-c2ccnc(OC3CCCC3)n2)nc(C(N)=O)c1N [Compound 170]
[1]; 2 h, 2 h incubation
  IC50: 1100 nM
[2]
  IC50: 23 nM

## CCOC(=O)Nc1ccccc1-c1nc(C(N)=O)c(N)c(-c2c(C)ccc3[nH]ncc23)n1 [Compound 473]
[1]; 2 h, 2 h compound incubation
  IC50: 48 nM
[2]
  IC50: 8 nM

## Cc1ccc2[nH]ncc2c1-c1cc(-c2ccnc(N)c2)nc(C(N)=O)c1N [Compound 189]
[1]; 2 h, 2 h incubation
  IC50: 1220 nM
[2]
  IC50: 21 nM

## Cc1ccc2[nH]ncc2c1-c1cc(-c2ccnc(S(C)(=O)=O)n2)nc(C(N)=O)c1N [Compound 168]
[1]; 2 h, 2 h incubation
  IC50: 7590 nM
[2]
  IC50: 29 nM
